Assay results as given in patent US7115594B2, “Use of 2-methylene-19-nor-20(S)-1α,25-dihydroxyvitamin D3 to increase bone strength” (Wisconsin Alumni Research Foundation, priority 2000, dated 2006).
“Also recorded” adds a separate entry of the source.

Assays:
[1] = system: ovariectomized old female rats; test: Treatment of ovariectomized old female rats (bone mass, serum calcium, femur ash); details: for BMC / BMC/Body Wt. / BMD / Femur Ash / Femur Ash (%) / Body Wt. / Serum CA: ovariectomized rats, mean ± SEM
[2] = system: ovariectomized old female rats; test: Strength of femurs and vertebrae to mechanical stress (animals of Table 1); type: in vivo; details: for Stress Value Femur / Stress Value Vertebra: ovariectomized rats
[3] = target: T1, porcine intestinal vitamin D receptor (Sus scrofa, UniProt A3RGC1); test: Competitive binding of [3H]-1,25-(OH)2-D3 to the porcine intestinal vitamin D receptor; details: FIG. 1, standard 1,25-(OH)2D3
T1 construct: from tissue; host or cells: pig intestine (nuclear receptor preparation)
T1 sequence (A3RGC1 1-427): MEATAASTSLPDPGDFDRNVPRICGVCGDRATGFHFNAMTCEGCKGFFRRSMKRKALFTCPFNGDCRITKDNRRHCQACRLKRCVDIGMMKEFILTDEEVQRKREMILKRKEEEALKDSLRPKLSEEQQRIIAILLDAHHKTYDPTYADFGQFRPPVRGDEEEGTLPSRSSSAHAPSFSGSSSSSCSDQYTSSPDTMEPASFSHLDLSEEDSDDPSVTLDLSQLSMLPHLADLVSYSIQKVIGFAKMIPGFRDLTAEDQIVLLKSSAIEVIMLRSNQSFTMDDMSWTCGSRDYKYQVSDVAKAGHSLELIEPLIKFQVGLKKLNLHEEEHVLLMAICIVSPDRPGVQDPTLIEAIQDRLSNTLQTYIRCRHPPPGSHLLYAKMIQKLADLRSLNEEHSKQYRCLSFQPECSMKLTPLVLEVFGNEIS
Method: FIG. 1 is a graph illustrating the relative activity of 2-methylene-19-nor-20(S)-1α,25-dihydroxyvitamin D3, 2-methylene-19-nor-1α,25-dihydroxyvitamin D3 and 1α,25-dihydroxyvitamin D3 to compete for binding of [^3H]-1,25-(OH)2-D3 to the vitamin D pig intestinal nuclear receptor;
Competitive binding of the analogs to the porcine intestinal receptor was carried out by the method described by Dame et al (Biochemistry 25, 4523–4534, 1986).

[4] = system: intestinal calcium transport; test: Intestinal calcium transport activity; type: in vivo; details: FIG. 2
Description: FIG. 2 is a graph illustrating the intestinal calcium transport activity of 2-methylene-19-nor-20(S)-1α,25-dihydroxyvitamin D3 as compared to 1α,25-dihydroxyvitamin D3;
The in vivo tests of increasing serum calcium of rats on a zero calcium diet provides an insight to […] or bone activity of 2MD.

Rhesus monkeys = test: Single oral dose in Rhesus monkeys, serum calcium; type: in vivo; details: single oral dose of 27 μg; 10 Kg Rhesus monkey; preliminary
Description: FIGS. 7 and 8 snow a six week toxicity study in rats showing that 2MD appears safe at up to 30 pmol/day.
These and other tests indicate that primates will tolerate 2MD extremely well which may give a very large window between efficacy and the danger of hypercalcemia in man.

`C=C1/C(=C\C=C2/CCC[C@]3(C)[C@@H]([C@H](C)CCCC(C)(C)O)CC[C@@H]23)C[C@@H](O)C[C@@H]1O` [1,25(OH)2D3, 1α,25-dihydroxyvitamin D3] was tested, and the BMC ([1]; 250 pmol/d 5X/Week, 8 weeks) was 8.90 ± 0.40 g, the “BMC/Body Wt.” value ([1]; 250 pmol/d 5X/Week, 8 weeks) was 22.4 ± 0.48 mg/g and the BMD ([1]; 250 pmol/d 5X/Week, 8 weeks) was 0.297 ± 0.001 g/cm^2. The BMC ([1]; 250 pmol/d 5X/Week, 17 weeks) was 9.6 ± 0.39 g, the “BMC/Body Wt.” value ([1]; 250 pmol/d 5X/Week, 17 weeks) was 24.5 ± 0.87 mg/g and the BMD ([1]; 250 pmol/d 5X/Week, 17 weeks) was 0.308 ± 0.008 g/cm^2. For the same compound, the BMC ([1]; 250 pmol/d 5X/Week, 30 weeks) was 10.1 ± 0.30 g, the “BMC/Body Wt.” value ([1]; 250 pmol/d 5X/Week, 30 weeks) was 26.1 ± 0.97 mg/g and the BMD ([1]; 250 pmol/d 5X/Week, 30 weeks) was 0.310 ± 0.007 g/cm^2. The “Femur Ash” value ([1]; 250 pmol/d 5X/Week, 30 weeks) was 417 ± 23 mg, the “Femur Ash (%)” value ([1]; 250 pmol/d 5X/Week, 30 weeks) was 60.8 ± 1.1% and the BMC ([1]; 500 pmol/d 3X/Week, 17 weeks) was 11.5 ± 0.25 g. For the same compound, the “BMC/Body Wt.” value ([1]; 500 pmol/d 3X/Week, 17 weeks) was 27.6 ± 0.68 mg/g, the BMD ([1]; 500 pmol/d 3X/Week, 17 weeks) was 0.331 ± 0.008 g/cm^2 and the BMC ([1]; 500 pmol/d 3X/Week, 30 weeks) was 11.8 ± 0.23 g. The “BMC/Body Wt.” value ([1]; 500 pmol/d 3X/Week, 30 weeks) was 28.0 ± 0.69 mg/g, the BMD ([1]; 500 pmol/d 3X/Week, 30 weeks) was 0.328 ± 0.008 g/cm^2 and the “Femur Ash” value ([1]; 500 pmol/d 3X/Week, 30 weeks) was 478 ± 7.5 mg. For the same compound, the “Femur Ash (%)” value ([1]; 500 pmol/d 3X/Week, 30 weeks) was 61.4 ± 1.3%, the BMC ([1]; 500 pmol/d 5X/Week, 8 weeks) was 10.2 ± 0.40 g and the “BMC/Body Wt.” value ([1]; 500 pmol/d 5X/Week, 8 weeks) was 26.3 ± 0.57 mg/g. The BMD ([1]; 500 pmol/d 5X/Week, 8 weeks) was 0.312 ± 0.005 g/cm^2, the “Stress Value Femur” value ([2]; 250 pmol/day/5X/Week) was 118.21 ± 19.85 and the “Stress Value Vertebra” value ([2]; 250 pmol/day/5X/Week) was 19.24 ± 5.66. The “Stress Value Femur” value ([2]; 500 pmol/d/3-5X/Week) was 116.47 ± 16.20 and the “Stress Value Vertebra” value ([2]; 500 pmol/d/3-5X/Week) was 17.14 ± 0.52.

In the case of `C=C1[C@H](O)CC(=C/C=C2\CCC[C@]3(C)[C@@H]([C@@H](C)CCCC(C)(C)O)CC[C@@H]23)C[C@H]1O` [2MD, 2-methylene-19-nor-20(S)-1α,25-dihydroxyvitamin D3], the “binding to the vitamin D receptor compared to 1,25-(OH)2D3” value [3] is reported as “about as active as 1,25(OH)2D3”, the “binding to the vitamin D receptor compared to 1,25-(OH)2D3” value ([3]; listed as 2-methylene-20(S)-19-nor-1,25-(OH)2D3) is reported as “bound equally well” and the “restoring bone of ovariectomized, old female rats” value ([1]; 32 pmol given 2 times per week, compared to 1,25(OH)2D3 at high doses 3 times per week) is reported as “very effective in restoring bone”. The “building bone mass in ovariectomized rats” value ([1]; compared to the native hormone / sham-operated controls, FIGS. 4 and 6) was “extraordinarily effective in building bone mass; also recorded: causes an increase in bone mass above that of sham-operated controls”, the “serum calcium concentration in ovariectomized rats” value ([1]; dosage levels used in the bone mass study) was “without increasing serum calcium concentration; also recorded: no change in serum calcium” and the “% ash in the femur” value ([1]; ovariectomized old female rats) was “increases % ash in the femur; also recorded: percent ash is unexpectedly increased further”. The BMC ([1]; 32 pmol/d 2X/Week, 8 weeks) was 8.4 ± 0.13 g, the “BMC/Body Wt.” value ([1]; 32 pmol/d 2X/Week, 8 weeks) was 22.4 ± 0.64 mg/g and the BMD ([1]; 32 pmol/d 2X/Week, 8 weeks) was 0.295 ± 0.009 g/cm^2. For the same compound, the “Body Wt.” value ([1]; 32 pmol/d 2X/Week, 8 weeks) was 375 ± 8.2 g, the BMC ([1]; 32 pmol/d 2X/Week, 17 weeks) was 9.7 ± 0.19 g and the “BMC/Body Wt.” value ([1]; 32 pmol/d 2X/Week, 17 weeks) was 26.2 ± 0.92 mg/g. For the same compound, the BMD ([1]; 32 pmol/d 2X/Week, 17 weeks) was 0.313 ± 0.011 g/cm^2, the “Body Wt.” value ([1]; 32 pmol/d 2X/Week, 17 weeks) was 373 ± 11.0 g and the BMC ([1]; 32 pmol/d 2X/Week, 30 weeks) was 11.6 ± 0.40 g. The “BMC/Body Wt.” value ([1]; 32 pmol/d 2X/Week, 30 weeks) was 33.4 ± 1.60 mg/g, the BMD ([1]; 32 pmol/d 2X/Week, 30 weeks) was 0.331 ± 0.006 g/cm^2 and the “Body Wt.” value ([1]; 32 pmol/d 2X/Week, 30 weeks) was 346 ± 11.0 g. The “Femur Ash” value ([1]; 32 pmol/d 2X/Week, 30 weeks) was 462 ± 21.4 mg, the “Femur Ash (%)” value ([1]; 32 pmol/d 2X/Week, 30 weeks) was 65.6 ± 1.7% and the “Serum CA” value ([1]; 32 pmol/d 2X/Week, 30 weeks) was 10.8 ± 0.22 mg/dL. The BMC ([1]; 65 pmol/d 1X/Week, 8 weeks) was 8.5 ± 0.23 g, the “BMC/Body Wt.” value ([1]; 65 pmol/d 1X/Week, 8 weeks) was 22.2 ± 0.53 mg/g and the BMD ([1]; 65 pmol/d 1X/Week, 8 weeks) was 0.293 ± 0.004 g/cm^2. The “Body Wt.” value ([1]; 65 pmol/d 1X/Week, 8 weeks) was 408 ± 10.5 g, the BMC ([1]; 65 pmol/d 1X/Week, 17 weeks) was 9.6 ± 0.24 g and the “BMC/Body Wt.” value ([1]; 65 pmol/d 1X/Week, 17 weeks) was 24.0 ± 0.80 mg/g. For the same compound, the BMD ([1]; 65 pmol/d 1X/Week, 17 weeks) was 0.312 ± 0.005 g/cm^2, the “Body Wt.” value ([1]; 65 pmol/d 1X/Week, 17 weeks) was 402 ± 11.3 g and the BMC ([1]; 65 pmol/d 1X/Week, 30 weeks) was 10.2 ± 0.33 g. For the same compound, the “BMC/Body Wt.” value ([1]; 65 pmol/d 1X/Week, 30 weeks) was 26.0 ± 1.10 mg/g, the BMD ([1]; 65 pmol/d 1X/Week, 30 weeks) was 0.310 ± 0.009 g/cm^2 and the “Body Wt.” value ([1]; 65 pmol/d 1X/Week, 30 weeks) was 393 ± 15.0 g. The “Femur Ash” value ([1]; 65 pmol/d 1X/Week, 30 weeks) was 443 ± 11.6 mg, the “Femur Ash (%)” value ([1]; 65 pmol/d 1X/Week, 30 weeks) was 62.5 ± 0.57% and the “Serum CA” value ([1]; 65 pmol/d 1X/Week, 30 weeks) was 10.7 ± 0.46 mg/dL. The “breaking strength in the femurs (cortical strength)” value ([2]; animals shown in Table 1) was “increases breaking strength in the femurs”, the “crushing strength in the vertebra (trabecular strength)” value ([2]; animals shown in Table 1) was “increases” and the “Stress Value Femur” value ([2]; 32 pmol/d/2X/Week) was 134.84 ± 14.12. The “Stress Value Vertebra” value ([2]; 32 pmol/d/2X/Week) was 23.93 ± 6.59, the “Stress Value Femur” value ([2]; 65 pmol/d/1X/Week) was 133.71 ± 14.06 and the “Stress Value Vertebra” value ([2]; 65 pmol/d/1X/Week) was 17.07 ± 5.73. For the same compound, the “activity in stimulating intestinal calcium transport compared to 1,25(OH)2D3” value [4] was “activity similar to that of 1,25-dihydroxyvitamin D3; also recorded: approximately equal that of 1,25-(OH)2D3” and the “elevation of serum calcium concentration” value (Rhesus monkeys) was “does not cause significant elevation of serum calcium concentration; also recorded: without appreciably elevating serum calcium concentration”.
